The test system of assay [1] is Eotaxin-3 release in human whole blood stimulated with IL-4. As to the kind of experiment: Human Whole Blood Eotaxin-3 Assay (IL-4 stimulated eotaxin-3 release). Format: cell-based. As to conditions: IL-4 stimulation, 48 h, values given for compounds with >80% Emax, geometric mean. The essentials: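 Eotaxin-3 (CCL26) release measured by MSD kit in plasma supernatant after 48 h IL-4 stimulation ([…]) of human whole blood. Compounds added in triplicate 4-fold dilutions 2 h before stimulation; 0.5% DMSO final, 37° C, 5% CO2.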

In the next assay the target is T1, STAT6 (Homo sapiens, UniProt P42226).
T1 construct: These cells express endogenous STAT6; host or cells: HeLa LgBiT clone 4.14
T1 sequence (P42226 1-847): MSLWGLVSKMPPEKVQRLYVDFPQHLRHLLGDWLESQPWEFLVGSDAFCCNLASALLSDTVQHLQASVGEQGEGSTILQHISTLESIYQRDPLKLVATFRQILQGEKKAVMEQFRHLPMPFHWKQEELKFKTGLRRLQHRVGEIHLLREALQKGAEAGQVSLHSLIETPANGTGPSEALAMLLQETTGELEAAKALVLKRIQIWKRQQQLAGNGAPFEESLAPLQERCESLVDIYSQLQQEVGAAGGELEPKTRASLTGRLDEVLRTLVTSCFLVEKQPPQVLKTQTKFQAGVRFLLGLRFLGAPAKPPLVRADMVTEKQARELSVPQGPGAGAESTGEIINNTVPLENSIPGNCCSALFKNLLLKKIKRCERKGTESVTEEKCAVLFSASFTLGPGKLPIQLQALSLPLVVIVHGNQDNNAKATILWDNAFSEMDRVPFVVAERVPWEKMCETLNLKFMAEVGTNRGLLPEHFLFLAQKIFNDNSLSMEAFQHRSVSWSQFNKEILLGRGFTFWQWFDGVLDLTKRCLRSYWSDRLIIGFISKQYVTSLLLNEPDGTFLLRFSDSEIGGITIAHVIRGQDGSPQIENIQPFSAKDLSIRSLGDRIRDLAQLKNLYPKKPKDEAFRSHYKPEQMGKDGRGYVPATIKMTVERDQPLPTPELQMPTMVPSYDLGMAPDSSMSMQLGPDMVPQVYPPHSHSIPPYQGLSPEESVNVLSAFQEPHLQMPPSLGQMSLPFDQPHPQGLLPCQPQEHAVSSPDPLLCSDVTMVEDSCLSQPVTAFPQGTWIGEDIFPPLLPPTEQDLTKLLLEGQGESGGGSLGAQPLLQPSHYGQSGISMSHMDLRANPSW
In words: Stat6 Degrader Assay (HiBiT based, HeLa LgBiT clone 4.14). Format: cell-based. As to conditions: HeLa LgBiT clone 4.14 HiBiT-STAT6, 4-24 h incubation; values given for compounds with >80% Emax; geometric mean; read-out: STAT6 degradation DC50. The essentials:
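Luminescence from HiBiT-STAT6 complementing stably expressed LgBiT in HeLa clone 4.14 reports remaining STAT6 protein. Cells (5000/well) exposed to compound for 4-24 h at 37° C; read 0.5 h after Nano-Glo addition. 100% degradation window set with 50 μM terfenadine; percent degradation plotted against concentration.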
A general note: HiBiT is a short tag that completes a luciferase, so light tracks the accessible tagged protein.

Structures are written as SMILES.

As a reminder, the EC50 is the concentration at which the effect is half-maximal. A high value points to weaker potency. In general, DC50 refers to the concentration giving 50% degradation. `CNc1ccn(-c2ccnc3c2cc([C@H](C)N2CC=C(c4c(C)cc(C(=O)N5CCC(CN6CCN(Cc7ccc8c(c7)C(C)(C)C(=O)N8C7CCC(=O)NC7=O)C[C@@H]6C)CC5)cc4F)CC2)n3C)c(=O)c1` (stereo partly drawn) [Example 3u175, 3-(5-(((S)-4-((1-(3-fluoro-5-methyl-4-(1-((S)-1-(1-methyl-4-(4-(methylamino)-2-oxopyridin-1 (2H)-yl)-1H-pyrrolo[2,3-b]pyridin-2-yl)ethyl)-1,2,3,6-tetrahydropyridin-4-yl)benzoyl)-piperidin-4-yl)methyl)-3-methylpiperazin-1-yl)methyl)-3,3-dimethyl-2-oxoindolin-1-yl)piperidine-2,6-dione]: in assay [1], the EC50 was 3.8 nM. In addition, the DC50 on STAT6 worked out at 1.3 nM.

In assay [1], `CNc1cc(=O)n(-c2ccnc3c2cc(CN2CCC(c4c(F)cc(C(=O)N5CCC(CN6CCN(Cc7cc8c(cc7F)N(C7CCC(=O)NC7=O)C(=O)C87CC7)CC6)CC5)cc4F)CC2)n3C)cc1F` (stereo not drawn) [Example 3u93, 3-(5′-((4-((1-(3,5-difluoro-4-(1-((4-(5-fluoro-4-(methylamino)-2-oxopyridin-1 (2H)-yl)-1-methyl-1H-pyrrolo[2,3-b]pyridin-2-yl)methyl)piperidin-4-yl)benzoyl)piperidin-4-yl)methyl)piperazin-1-yl)methyl)-6′-fluoro-2′-oxospiro[cyclopropane-1,3′-indolin]-1′-yl)piperidine-2,6-dione] gave an EC50 of 16.6 nM. Besides, the DC50 on STAT6 stood at 26.9 nM.

In assay [1], `CNc1cc(=O)n(-c2ccnc3c2cc(CN2CCC(c4c(F)cc(C(=O)N5CCC(CN6CCN(Cc7ccc8c(c7)n(C)c(=O)n8[C@H]7CCC(=O)NC7=O)CC6)CC5)cc4F)CC2)n3C)cc1F` (single isomer, unassigned) [Example 3u27] registered an EC50 of 5.7 nM. Besides, the DC50 at STAT6 came out at 2 nM.

Regarding `CNc1cc(=O)n(-c2ccnc3c2cc(CN2CC=C(c4c(F)cc(C(=O)N5CCC(CN6CCN(Cc7ccc8c(c7)n(C)c(=O)n8[C@H]7CCC(=O)NC7=O)C[C@@H]6C)CC5)cc4F)CC2)n3C)cc1F` (single isomer, unassigned) [Example 3u56], the EC50 in assay [1] is 3.5 nM. Besides, the DC50 on STAT6 was determined as 8.7 nM.

In assay [1], `CNc1ccn(-c2ccnc3c2cc([C@H](C)N2CCC(c4ccc(C(=O)N5CCC(CN6CCN(Cc7ccc8c(c7)C7(CC7)C(=O)N8[C@H]7CCC(=O)NC7=O)C[C@@H]6C)CC5)cc4)CC2)n3C)c(=O)c1` (single isomer, unassigned) [Example 3u6] showed an EC50 of 19.3 nM. Also, the DC50 at STAT6 worked out at 0.7 nM.

For the molecule `CNc1cc(=O)n(-c2ccnc3c2cc([C@H](C)N2CC=C(c4c(C)cc(C(=O)N5CCC(CN6CCN(Cc7ccc8c(c7)n(C)c(=O)n8C7CCC(=O)NC7=O)C[C@@H]6C)CC5)cc4F)CC2)n3C)cc1F` (stereo partly drawn) [Example 3u90, 3-(5-(((S)-4-((1-(3-fluoro-4-(1-((S)-1-(4-(5-fluoro-4-(methylamino)-2-oxopyridin-1 (2H)-yl)-1-methyl-1H-pyrrolo[2,3-b]pyridin-2-yl)ethyl)-1,2,3,6-tetrahydropyridin-4-yl)-5-methylbenzoyl)piperidin-4-yl)methyl)-3-methylpiperazin-1-yl)methyl)-3-methyl-2-oxo-2,3-dihydro-1H-benzo[d]imidazol-1-yl)piperidine-2,6-dione], the midpoint of the response in assay [1], the EC50, lay at 0.9 nM. The DC50 on STAT6 came to 0.3 nM.

As for `CNc1cc(=O)n(-c2ccnc3c2cc([C@H](C)N2CC=C(c4c(C)cc(C(=O)N5CCC(CN6CCN(Cc7ccc8c(c7)C7(CCC7)C(=O)N8C7CCC(=O)NC7=O)CC6)CC5)cc4F)CC2)n3C)cc1F` (stereo partly drawn) [Example 3u258, 3-(5′-((4-((1-(3-fluoro-4-(1-((S)-1-(4-(5-fluoro-4-(methylamino)-2-oxopyridin-1 (2H)-yl)-1-methyl-1H-pyrrolo[2,3-b]pyridin-2-yl)ethyl)-1,2,3,6-tetrahydropyridin-4-yl)-5-methylbenzoyl)piperidin-4-yl)methyl)piperazin-1-yl)methyl)-2′-oxospiro[cyclobutane-1,3′-indolin]-1′-yl)piperidine-2,6-dione], the EC50 in assay [1] amounted to 7 nM. Further, on STAT6, the DC50 is 3.1 nM.

In turn, `CNc1cc(=O)n(-c2ccnc3c2cc([C@H](C)N2CC=C(c4c(C)cc(C(=O)N5CCC(CN6CCN(c7ccc8c(c7)C7(CC7)C(=O)N8C7CCC(=O)NC7=O)C[C@@H]6C)CC5)cc4F)CC2)n3C)cc1F` (stereo partly drawn) [Example 3u63, 3-(5′-((S)-4-((1-(3-fluoro-4-(1-((S)-1-(4-(5-fluoro-4-(methylamino)-2-oxopyridin-1 (2H)-yl)-1-methyl-1H-pyrrolo[2,3-b]pyridin-2-yl)ethyl)-1,2,3,6-tetrahydropyridin-4-yl)-5-methylbenzoyl)-piperidin-4-yl)methyl)-3-methylpiperazin-1-yl)-2′-oxospiro[cyclopropane-1,3′-indolin]-1′-yl)-piperidine-2,6-dione] returned an EC50 in assay [1] of 67.3 nM. In addition, at STAT6, the 50% degradation concentration (DC50) worked out at 12.9 nM.

Consider `CNc1cc(=O)n(-c2ccnc3c2cc(CN2CC=C(c4c(F)cc(C(=O)N5CCC(CN6CCN(Cc7ccc8c(c7)C(C)(C)C(=O)N8[C@@H]7CCC(=O)NC7=O)C[C@@H]6C)CC5)cc4F)CC2)n3C)cc1F` (single isomer, unassigned) [Example 3u79], for which, in assay [1], the EC50 came out at 107 nM. The DC50 on STAT6 stood at 15.4 nM.

Consider `CNc1ccn(-c2ccnc3c2cc([C@H](C)N2CC=C(c4c(F)cc(C(=O)N5CCC(CN6CCN(Cc7ccc8c(c7)C(C)(C)C(=O)N8[C@@H]7CCC(=O)NC7=O)C[C@@H]6C)CC5)cc4F)CC2)n3C)c(=O)c1` (single isomer, unassigned) [Example 3u203], for which a half-maximal effect in assay [1] (EC50) was put at 5.2 nM. At STAT6, the DC50 was 3.4 nM.

In the case of `Cc1cc(C(=O)N2CCC(CN3CCN(Cc4ccc5c(c4)C(C)(C)C(=O)N5C4CCC(=O)NC4=O)C[C@@H]3C)CC2)cc(F)c1C1=CCN([C@@H](C)c2cc3c(-n4cc(F)c(N)cc4=O)ccnc3n2C)CC1` (stereo partly drawn) [Example 3u169, 3-(5-(((S)-4-((1-(4-(1-((S)-1-(4-(4-amino-5-fluoro-2-oxopyridin-1 (2H)-yl)-1-methyl-1H-pyrrolo[2,3-b]pyridin-2-yl)ethyl)-1,2,3,6-tetrahydropyridin-4-yl)-3-fluoro-5-methylbenzoyl)piperidin-4-yl)methyl)-3-methylpiperazin-1-yl)methyl)-3,3-dimethyl-2-oxoindolin-1-yl)piperidine-2,6-dione], the EC50 in assay [1] was 14.6 nM. In addition, the DC50 on STAT6 amounted to 4.1 nM.

`CNc1cc(=O)n(-c2ccnc3c2cc([C@H](C)N2CC=C(c4c(C)cc(C(=O)N5CCC(CN6CCN(Cc7cc8c(cc7F)N([C@@H]7CCC(=O)NC7=O)C(=O)C87CC7)CC6)CC5)cc4F)CC2)n3C)cc1F` (single isomer, unassigned) [Example 3u153] displayed an EC50 in assay [1] of 8.7 nM. Moreover, the DC50 at STAT6 came out at 4.1 nM.

In turn, `Cc1cc(C(=O)N2CCC(CN3CCN(Cc4ccc5c(c4)C(C)(C)C(=O)N5[C@@H]4CCC(=O)NC4=O)C[C@@H]3C)CC2)cc(F)c1C1=CCN([C@@H](C)c2cc3c(-n4cc(F)c(N)cc4=O)ccnc3n2C)CC1` (single isomer, unassigned) [Example 3u171] displayed an EC50 in assay [1] of 15.4 nM. Besides, the DC50 at STAT6 is 3.5 nM.

For `CNc1cc(=O)n(-c2ccnc3c2cc(CN2CC=C(c4c(F)cc(C(=O)N5CCC(CN6CCN(Cc7ccc8c(c7)n(C)c(=O)n8[C@@H]7CCC(=O)NC7=O)C[C@@H]6C)CC5)cc4F)CC2)n3C)cc1F` (single isomer, unassigned) [Example 3u55], in assay [1], a half-maximal effect (EC50) was put at 3.1 nM. At STAT6, the DC50 turned out to be 7.6 nM.

Molecule `CNc1cc(=O)n(-c2ccnc3c2cc([C@H](C)N2CC=C(c4c(C)cc(C(=O)N5CCC(CN6CCN(c7ccc8c(c7)C7(CC7)C(=O)N8C7CCC(=O)NC7=O)CC6)CC5)cc4F)CC2)n3C)cc1F` (stereo partly drawn) [Example 3u302, 3-(5′-(4-((1-(3-fluoro-4-(1-((S)-1-(4-(5-fluoro-4-(methylamino)-2-oxopyridin-1 (2H)-yl)-1-methyl-1H-pyrrolo[2,3-b]pyridin-2-yl)ethyl)-1,2,3,6-tetrahydropyridin-4-yl)-5-methylbenzoyl)piperidin-4-yl)methyl)piperazin-1-yl)-2′-oxospiro[cyclopropane-1,3′-indolin]-1′-yl)piperidine-2,6-dione] showed an EC50 in assay [1] of 29.2 nM. Besides, the DC50 at STAT6 was 4.9 nM.

Values taken from patent US20250320206A1, “STAT6 DEGRADERS” (Gilead Sciences, Inc., priority 2024, published 2025).
